Results taken from article PMC10439952, “JT002, a small molecule inhibitor of the NLRP3 inflammasome for the treatment of autoinflammatory disorders” (Scientific Reports, 2023).

Tests used:
NLRP3 inflammasome = NLRP3 inflammasome (Homo sapiens, UniProt Q96P20); test: Inhibition of IL-1β production in human PBMCs stimulated by LPS + nigericin; type: cell-based; set-up: host or cells: human PBMCs; fresh heparinised human whole blood from healthy volunteers; details: Human PBMC, read-out: Geo Av IC50, IL-1β
NLRP3 inflammasome, sequence (Q96P20 whole entry): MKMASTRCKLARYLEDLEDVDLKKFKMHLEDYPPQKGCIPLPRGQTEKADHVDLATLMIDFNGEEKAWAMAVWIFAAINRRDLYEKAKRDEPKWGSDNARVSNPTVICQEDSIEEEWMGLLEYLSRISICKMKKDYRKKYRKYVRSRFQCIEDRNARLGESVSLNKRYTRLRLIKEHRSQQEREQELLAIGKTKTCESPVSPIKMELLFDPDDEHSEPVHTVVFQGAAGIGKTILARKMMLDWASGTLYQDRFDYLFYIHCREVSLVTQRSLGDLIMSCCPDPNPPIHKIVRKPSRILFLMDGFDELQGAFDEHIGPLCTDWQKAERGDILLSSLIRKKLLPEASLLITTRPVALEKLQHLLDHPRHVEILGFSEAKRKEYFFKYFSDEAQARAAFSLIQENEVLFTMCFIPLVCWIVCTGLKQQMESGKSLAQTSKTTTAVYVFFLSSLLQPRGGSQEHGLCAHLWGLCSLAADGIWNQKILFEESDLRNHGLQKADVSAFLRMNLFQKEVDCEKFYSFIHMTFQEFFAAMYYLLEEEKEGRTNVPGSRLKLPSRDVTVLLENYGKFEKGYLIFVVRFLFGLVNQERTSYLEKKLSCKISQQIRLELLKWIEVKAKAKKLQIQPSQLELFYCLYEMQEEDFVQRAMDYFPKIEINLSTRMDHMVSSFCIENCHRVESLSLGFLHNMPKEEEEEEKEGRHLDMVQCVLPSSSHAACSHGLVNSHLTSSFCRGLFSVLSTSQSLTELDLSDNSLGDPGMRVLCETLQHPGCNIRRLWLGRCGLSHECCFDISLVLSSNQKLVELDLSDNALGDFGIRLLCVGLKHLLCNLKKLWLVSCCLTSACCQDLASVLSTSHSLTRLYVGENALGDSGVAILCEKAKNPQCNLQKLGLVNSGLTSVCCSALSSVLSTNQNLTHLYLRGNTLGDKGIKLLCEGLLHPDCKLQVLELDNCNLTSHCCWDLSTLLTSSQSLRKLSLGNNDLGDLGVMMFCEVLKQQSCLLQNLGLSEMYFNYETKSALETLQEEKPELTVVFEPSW
Description: Inflammasome activation and whole blood assays were essentially carried out as described earlier. Details can be found in the supplementary information section accompanying this publication. A protocol for blood draws from healthy volunteers and use of the blood in preclinical assays was approved by Western Institutional Review Board, Inc (Puyallup, WA, USA). Informed consent was obtained from each donor prior to the first blood draw.
Cell viability was determined by addition of an equal volume of CellTiter-Glo® 2.0 reagent (Promega) to the remaining cells/supernatant in each well. Intracellular Caspase-1 activity was measured using the Caspase-Glo® assay (Promega) according to the manufacturer’s instructions. The biochemical capsase-1 assay was conducted at Reaction Biology Corporation (Malvern, USA). Human IL-1β, IL-1α, and TNFα and mouse IL-1β were measured in cell culture supernatants using homogeneous time resolved fluorescence assay kits (HTRF, Cisbio, Codolet, France). Human IL-18 was measured in cell culture supernatants using an ELISA kit (R&D Systems, Minneapolis, MN, USA). Plasma IL-1β concentrations were determined by Quantikine® ELISA (R&D Systems, Minneapolis, MN).
4H). MS: m/z 433.1 (M+H+). […]

[1] = Plasma JT002 concentrations in mice after a single oral dose; type: in vivo, mouse; details: single oral dose 25 mg/kg
Description: In vivo pharmacodynamics (PD) were evaluated in mice for determination of target engagement as this species is routinely used for assessment of preclinical efficacy. Treatment of fresh, whole blood with LPS plus ATP results in the NLRP3-dependent release of IL-1β, thus providing a robust method for tracking target engagement of NLRP3 inflammasome inhibitors in the circulation after oral dose administration[36],[47]. In vivo target engagement using ex vivo stimulation of blood was evaluated in mice at various times after oral dosing of JT002. For each time point tested, one group of mice received a single oral dose of 25 mg/kg JT002 (n = 8/group) and another group received the vehicle control (n = 8/group). At the time of harvest, blood was collected from each animal and an aliquot removed and processed to plasma for determination of JT002 concentrations. The remaining blood was stimulated ex vivo with LPS plus ATP followed by analysis of IL-1β concentrations (Fig. 3A). […] Consistent with these findings, plasma concentrations of JT002 decreased over time, with mean concentrations of ≥ 4.0 µM through 8 h and a mean concentration of 6 nM at the 24-h sampling (Fig. 3C,D). […]

IC50 (NLRP3 inflammasome): 6 nM
concentration at 24 h ([1]; male, C57BL/6, mouse, plasma, 24-h sampling): 6 nM
concentration at 24 h ([1]; through 8 h): ≥ 4000 nM
SMILES: CO[C@@H]1COc2c(S(=O)(=O)NC(=O)Nc3c4c(cc5c3CCC5)CCC4)cnn2C1 [JT002]
